Experimental data from patent publication US6833372B2, “Non-peptide GnRH agents, Pharmaceutical compositions, and methods for their use” (Pfizer, Inc., priority 2002, dated 2004).
Converted amounts (≈) assume the structure as drawn. Like-named read-outs stand apart in the source and are kept apart here.

Assays:
[1] = Solubility at pH2 and pH6; assay type: physicochemical
rat GnRH receptor = target: T1, rat GnRH receptor (Rattus norvegicus, UniProt P30969); test: Radioligand binding: inhibition of 125I-GnRH-A binding to rat GnRH receptor (rat pituitary membranes); details: read-out: Ki (nM), Inhibition Binding of 125I-GnRH-A to GnRH Receptors
T1 construct: or rat pituitaries (Pel Freez Biologicals, Rogers, Ark.) were homogenized; tissue Pel Freez Biologicals; host or cells: rat pituitaries (membrane preparation)
T1 sequence (P30969 1-327): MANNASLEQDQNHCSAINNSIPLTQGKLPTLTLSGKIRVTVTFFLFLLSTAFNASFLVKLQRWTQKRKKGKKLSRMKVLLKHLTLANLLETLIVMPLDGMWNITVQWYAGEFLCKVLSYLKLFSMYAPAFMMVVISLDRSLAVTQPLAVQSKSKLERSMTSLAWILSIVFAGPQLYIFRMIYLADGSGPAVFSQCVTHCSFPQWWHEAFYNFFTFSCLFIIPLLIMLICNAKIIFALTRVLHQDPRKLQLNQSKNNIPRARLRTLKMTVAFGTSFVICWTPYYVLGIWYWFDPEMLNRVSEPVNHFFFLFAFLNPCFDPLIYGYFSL
Procedure, shortened: (§1)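 Membranes from rat pituitaries, or HEK 293 cells stably expressing mouse or human receptor, incubated 1 hour at room temperature with ~0.04-0.06 nM radioligand (HEPES pH 7.4, EDTA, MgCl2, BSA) and competitor at 0.1-10,000 nM. Bound ligand collected by GF/C filtration and counted; Ki derived from IC50 by Cheng-Prusoff.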

[2] = In vitro metabolism: disappearance of parent compound in monkey liver microsomes; assay type: in vitro ADME; details: 5 uM compound, 30 minutes 37° C.
Procedure: (§2) Human, rat, dog, and monkey liver microsomes were isolated by differential centrifugation. Specimens of human liver were obtained from the International Institute for the Advancement of Medicine (Scranton, Pa.). The disappearance of the parent compound was studied in a mixture containing 5 uM compound, 0.5 mg/ml microsomal protein, and 2 mM NADPH in 50 mM K phosphate buffer, pH 7.4. Samples were incubated for 30 minutes at 37° C. The reaction was terminated by the addition of acetonitrile and compounds analyzed by LC-MS as described above.

[3] = In vitro metabolism: disappearance of parent compound in rat liver microsomes (male, female); assay type: in vitro ADME; details: 5 uM compound, 30 minutes 37° C.; for Fem. Rat (FR) % rem. 30′: female rat liver microsomes; for Male Rat (MR) % rem. 30′: male rat liver microsomes
Procedure: as §2

human GnRH receptors = target: T2, human GnRH receptors (Homo sapiens, UniProt P30968); test: Radioligand binding: inhibition of 125I-GnRH-A binding to human GnRH receptor membranes; details: HEK 293 cell membranes
T2 construct: expressed in transfected cells; host or cells: HEK 293 cells, stably transfected; membranes
T2 sequence (P30968 1-328): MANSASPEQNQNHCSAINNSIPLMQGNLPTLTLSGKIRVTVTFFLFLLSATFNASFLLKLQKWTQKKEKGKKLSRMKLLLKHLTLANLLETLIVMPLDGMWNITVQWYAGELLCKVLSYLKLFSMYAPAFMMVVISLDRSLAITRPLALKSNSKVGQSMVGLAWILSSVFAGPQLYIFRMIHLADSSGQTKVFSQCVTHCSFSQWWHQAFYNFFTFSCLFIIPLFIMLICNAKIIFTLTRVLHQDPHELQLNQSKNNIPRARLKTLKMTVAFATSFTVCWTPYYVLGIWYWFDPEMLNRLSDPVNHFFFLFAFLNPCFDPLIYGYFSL
Procedure, shortened: as §1

[4] = In vitro metabolism: disappearance of parent compound in dog liver microsomes; assay type: in vitro ADME; details: 5 uM compound, 30 minutes 37° C.
Procedure: as §2

[5] = In vitro metabolism: disappearance of parent compound in human liver microsomes; assay type: in vitro ADME; details: 5 uM compound, 0.5 mg/ml protein, 2 mM NADPH, 30 minutes 37° C.
Procedure: as §2

Rat plasma % remain = assay type: in vitro ADME
[6] = Pharmacokinetics in rats (jugular vein cannula, plasma LC-MS); assay type: in vivo, Rat; details: female rat, 10 mg/kg as 5 mg/ml solution in 10% DMSO, 10% cremophor, 80% saline (footnote 5), 10 mg/kg; for Cmax: read-out: FR Cmax
Procedure: Rats (male or female, 200-225 g) were prepared with indwelling jugular vein cannula as described by Harms et al., Applied Physiol. 36:391-398 (1974), and allowed to recover overnight with free access to the standard vivarium chow and water. […] […] The blood samples were withdrawn at specific times, plasma was immediately separated and compound extracted with ethyl acetate. The samples were analyzed by LC-MS using 30-90% gradient of ACN in 50 mM ammonium acetate.
The pharmacokinetic parameters were calculated using WinNonlin software (Scientific Consulting Inc.). The bioavailability was calculated as AUCp.o./AUCi.v., where AUCp.o. and AUC i.v. are areas under the plasma concentration-time curve after oral and i.v. administration, respectively.

[7] = pH 6, aqueous buffer, pH6, read-out: Solubility μg/ml pH6

| Structure (SMILES) | solubility [1, 7] [µg/mL] | Ki (rat GnRH receptor) [nM] | Monkey % rem. [2] [%] | Fem. Rat (FR) % rem. 30′ [3] [%] | Male Rat (MR) % rem. 30′ [3] [%] | Ki (human GnRH receptors) [nM] | Dog % rem. 30′ [4] [%] | Human % rem. 30′ [5] [%] | Rat plasma % remain (Rat plasma % remain) [%] | solubility ([1]; pH 2, simulated gastric fluid, pH2, read-out: Solubility μg/ml pH2) [µg/mL] | FR T1/2 hr [6] [h] | Cmax [6] [nM] | Cmax ([6]; female, rat, plasma, po) [nM] | half-life ([6]; female, rat, plasma, po, read-out: FR T1/2 hr (converted)) [h] |
| --- | --- | --- | --- | --- | --- | --- | --- | --- | --- | --- | --- | --- | --- | --- |
| COc1nc(NCCCN2CCOCC2)nc(OC)c1NC(=O)c1ccc(Cc2cc3c(cc2C)C(C)(C)CCC3(C)C)o1 [Example B4, 5-(3,5,5,8,8-Pentamethyl-5,6,7,8-tetrahydro-naphthalen-2-ylmethyl)-furan-2-carboxylic Acid [4,6-dimethoxy-2-(3-morpholin-4-yl-propylamino)-pyrimidin-5-yl]-amide] | 2.5 (≈ 4.13 µM) | 0.4 | 0 | 100 | 38 | 0.5 | 26 | 38 | – | – | – | – | – | – |
| COc1nc(NCCCN2CCCCC2)nc(OC)c1NC(=O)c1ccc(Cc2cc3c(cc2C)C(C)(C)OC3(C)C)o1 [Example D22, N-(4,6-Dimethoxy-2-{[3-piperidin-1-ylpropyl)amino]-pyrimidin-5-yl}-5-[(1,1,3,3,6-pentamethyl-1,3-dihydro-2-benzofuran-5-yl)methyl]-2-furamide] | – | 0.3 | 5 | 94 | 69 | 0.96 | 87 | 66 | – | – | – | – | – | – |
| COc1nc(N(CCCN)CCCN)nc(OC)c1NC(=O)c1ccc(Cc2cc3c(cc2C)C(C)(C)OC3(C)C)o1 [Example D16, N-{2-[Bis(3-aminopropyl)amino]-4,6-dimethoxypyrimidin-5-yl}-5-[(1,1,3,3,6-pentamethyl-1,3-dihydro-2-benzofuran-5-yl)methyl]-2-furamide] | – | 1.1 | 66 | 95 | 34 | 6.5 | 97 | 76 | – | – | – | – | – | – |
| COc1nc(NCCN(C)C)nc(OC)c1NC(=O)c1ccc(Cc2cc3c(cc2C)C(C)(C)OC3(C)C)o1 [Example D10, N-(2-{[2-(Dimethylamino)ethyl]amino}-4,6-dimethoxypyrimidin-5-yl)-5-[(1,1,3,3,6-pentamethyl-1,3-dihydro-2-benzofuran-5-yl)methyl]-2-furamide] | – | 2.6 | 28 | 79 | 66 | 7.3 | 66 | 77 | – | – | – | – | – | – |
| COc1nc(NCCNCCN)nc(OC)c1NC(=O)c1ccc(Cc2cc3c(cc2C)C(C)(C)OC3(C)C)o1 [Example D12, N-[2-({2-[(2-aminoethyl)amino]ethyl}amino)-4,6-dimethoxypyrimidin-5-yl]-5-[(1,1,3,3,6-pentamethyl-1,3-dihydro-2-benzofuran-5-yl)methyl]-2-furamide] | > 30 | 0.8 | 37 | 80 | 54 | 1.2 | 59 | 81 | – | > 30 | – | – | – | – |
| COc1nc(NCCN2CCCCC2)nc(OC)c1NC(=O)c1ccc(Cc2cc3c(cc2C)C(C)(C)OC3(C)C)o1 [Example D6, N-{4,6-Dimethoxy-2-[(2-piperidin-1-ylethyl)amino]pyrimidin-5-yl}-5-[(1,1,3,3,6-pentamethyl-1,3-dihydro-2-benzofuran-5-yl)methyl]-2-furamide] | – | 0.86 | 8 | 90 | 74 | 1.2 | 77 | 77 | – | – | – | – | – | – |
| COc1nc(NCCCN2CCOCC2)nc(OC)c1NC(=O)c1ccc(Cc2cc3c(cc2C)C(C)(C)OC3(C)C)o1 [Example D3, 5-(1,1,3,3,6-Pentamethyl-1,3-dihydro-isobenzofuran-5-ylmethyl)-furan-2-carboxylic Acid [4,6-dimethoxy-2-(3-morpholin-4-yl-propylamino)-pyrimidin-5-yl]-amide] | – | 0.4 | – | – | 22 | 24.5 | – | – | 100 | – | 2.3 | 200 | 400 | 1.6 |
| COc1nc(NCCCCN(C)C)nc(OC)c1NC(=O)c1ccc(Cc2cc3c(cc2C)C(C)(C)OC3(C)C)o1 [Example D11, N-(2-{[4-(Dimethylamino)butyl]amino}-4,6-dimethoxy-pyrimidin-5-yl)-5-[(1,1,3,3,6-pentamethyl-1,3-dihydro-2-benzofuran-5-yl)methyl]-2-furamide] | – | 0.5 | 20 | 56 | 42 | 1.1 | 56 | 62 | – | – | – | – | – | – |

Next, values leading:

| solubility [1, 7] [µg/mL] | Ki (rat GnRH receptor) [nM] | Monkey % rem. [2] [%] | Fem. Rat (FR) % rem. 30′ [3] [%] | Male Rat (MR) % rem. 30′ [3] [%] | Ki (human GnRH receptors) [nM] | Dog % rem. 30′ [4] [%] | Human % rem. 30′ [5] [%] | Rat plasma % remain (Rat plasma % remain) [%] | solubility ([1]; pH 2, simulated gastric fluid, pH2, read-out: Solubility μg/ml pH2) [µg/mL] | FR T1/2 hr [6] [h] | Cmax [6] [nM] | Cmax ([6]; female, rat, plasma, po) [nM] | half-life ([6]; female, rat, plasma, po, read-out: FR T1/2 hr (converted)) [h] | Structure (SMILES) |
| --- | --- | --- | --- | --- | --- | --- | --- | --- | --- | --- | --- | --- | --- | --- |
| 2 (≈ 3.92 µM) | 7 | 0 | 76 | 12 | 3.4 | 28 | 48 | – | – | – | – | – | – | COCCOc1nc(OC)c(NC(=O)c2ccc(Cc3cc4c(cc3C)CCCC4(C)C)o2)c(OC)n1 [Example E1, 5-(3,8,8-Trimethyl-5,6,7,8-tetrahydro-naphthalen-2-ylmethyl)-furan-2-carboxylic acid [4,6-dimethoxy-2-(2-methoxy-ethoxy)-pyrimidin-5-yl]-amide] |
| – | 1.7 | 2 | 100 | 74 | 1.3 | 85 | 70 | 100 | – | – | – | – | – | COc1nc(NCCC#N)nc(OC)c1NC(=O)c1ccc(Cc2cc3c(cc2C)CCCC3(C)C)o1 [Example F2, 5-(3,8,8-Trimethyl-5,6,7,8-tetrahydro-naphthalen-2-ylmethyl)-furan-2-carboxylic acid [2-(2-cyano-ethylamino)-4,6-dimethoxy-pyrimidin-5-yl]-amide] |
| 12 (≈ 20.8 µM) | 0.35 | 0 | 81 | 36 | 0.91 | 31 | 39 | – | – | – | – | – | – | COc1nc(NCCCN2CCOCC2)nc(OC)c1NC(=O)c1ccc(Cc2cc3c(cc2C)CCCC3(C)C)o1 [Example F1, 5-(3,8,8-Trimethyl-5,6,7,8-tetrahydro-naphthalen-2-ylmethyl)-furan-2-carboxylic acid [4,6-dimethoxy-2-(3-morpholin-4-yl-propylamino)-pyrimidin-5-yl]-amide] |
